Reference: patent US20090016990A1, “Antimicrobial Compositions” (priority 2007, published 2009)

What was measured:
[1] = system: Pseudomonas aeruginosa ATCC 27853; assay: MBEC assay, biofilm inhibition (prevention of biofilm formation), MBEC bioFILM PA panel; format: cell-based; design: MBEC-Biofilm Inhibition, Without compound 9 / MBEC-Biofilm Inhibition, Without compound 6 / MBEC-Biofilm Inhibition, Without compound 2 / MBEC-Biofilm Inhibition, Without compound 7 / MBEC-Biofilm Inhibition, With 0.01% compound 7 in 5% EtOH/PBS / MBEC-Biofilm Inhibition, without salt of compound 2 / MBEC-Biofilm Inhibition, with 0.1% salt of compound 2 / MBEC-Biofilm Inhibition, without salt of compound 6: unit not given here; conditions: for MBEC-Biofilm Inhibition, without salt of compound 2 / MBEC-Biofilm Inhibition, with 0.1% salt of compound 2: Table 9; for MBEC-Biofilm Inhibition, without salt of compound 2 / MBEC-Biofilm Inhibition, without salt of compound 6: antibiotic or antibiotic combination alone; for MBEC-Biofilm Inhibition, without salt of compound 2 / MBEC-Biofilm Inhibition, with 0.1% salt of compound 2 / MBEC-Biofilm Inhibition, without salt of compound 6 / MBEC-Biofilm Inhibition, with 0.1% salt of compound 6: value per component; for MBEC-Biofilm Inhibition, without salt of compound 2: separated by /; for MBEC-Biofilm Inhibition, with 0.1% salt of compound 2: antibiotic or combination plus 0.1% salt of compound 2; for MBEC-Biofilm Inhibition, without salt of compound 6 / MBEC-Biofilm Inhibition, with 0.1% salt of compound 6: Table 10; for MBEC-Biofilm Inhibition, with 0.1% salt of compound 6: antibiotic or combination plus 0.1% salt of compound 6; for MBEC-Biofilm Inhibition, Without compound 1 / MBEC-Biofilm Inhibition, Without compound 2 / MBEC-Biofilm Inhibition, Without compound 3 / MBEC-Biofilm Inhibition, Without compound 6 / MBEC-Biofilm Inhibition, Without compound 7 / MBEC-Biofilm Inhibition, Without compound 9: antibiotic alone
[2] = system: Pseudomonas aeruginosa ATCC 27853; assay: MBEC assay, biofilm elimination, MBEC bioFILM PA panel; format: cell-based; design: MBEC-Biofilm Elimination, Without compound 2 / MBEC-Biofilm Elimination, With 0.01% compound 2 in 5% EtOH/PBS / MBEC-Biofilm Elimination, Without compound 7 / MBEC-Biofilm Elimination, With 0.01% compound 7 in 5% EtOH/PBS / MBEC-Biofilm Elimination, Without compound 1 / MBEC-Biofilm Elimination, With 0.01% compound 1 in 5% EtOH/PBS / MBEC-Biofilm Elimination, without salt of compound 2 / MBEC-Biofilm Elimination, with 0.1% salt of compound 2: unit not given here; conditions: for MBEC-Biofilm Elimination, without salt of compound 2 / MBEC-Biofilm Elimination, with 0.1% salt of compound 2: Table 9; for MBEC-Biofilm Elimination, without salt of compound 2 / MBEC-Biofilm Elimination, without salt of compound 6: antibiotic or antibiotic combination alone; for MBEC-Biofilm Elimination, without salt of compound 2 / MBEC-Biofilm Elimination, with 0.1% salt of compound 2 / MBEC-Biofilm Elimination, without salt of compound 6 / MBEC-Biofilm Elimination, with 0.1% salt of compound 6: value per component; for MBEC-Biofilm Elimination, with 0.1% salt of compound 2: antibiotic or combination plus 0.1% salt of compound 2; for MBEC-Biofilm Elimination, without salt of compound 6 / MBEC-Biofilm Elimination, with 0.1% salt of compound 6: Table 10; for MBEC-Biofilm Elimination, with 0.1% salt of compound 6: antibiotic or combination plus 0.1% salt of compound 6; for MBEC-Biofilm Elimination, Without compound 1 / MBEC-Biofilm Elimination, Without compound 2 / MBEC-Biofilm Elimination, Without compound 3 / MBEC-Biofilm Elimination, Without compound 6 / MBEC-Biofilm Elimination, Without compound 7 / MBEC-Biofilm Elimination, Without compound 9: antibiotic alone
[3] = reduction of antibiotic or combination required to prevent biofilm formation
[4] = with 0.01% compound 1 in 5% EtOH/PBS
[5] = with 0.01% compound 2 in 5% EtOH/PBS
[6] = with 0.1% w/v compound 9 in PBS

Row | SMILES | MBEC-Biofilm Inhibition, without salt of compound 2 [1] | MBEC-Biofilm Inhibition, with 0.1% salt of compound 2 [1] | MBEC-Biofilm Inhibition, without salt of compound 6 [1] | MBEC-Biofilm Inhibition, with 0.1% salt of compound 6 [1] | MBEC-Biofilm Inhibition, Without compound 1 [1] | MBEC-Biofilm Inhibition, Without compound 2 [1] | MBEC-Biofilm Inhibition, Without compound 3 [1] | MBEC-Biofilm Inhibition, Without compound 6 [1] | MBEC-Biofilm Inhibition, Without compound 7 [1] | MBEC-Biofilm Inhibition, Without compound 9 [1] | MBEC-Biofilm Inhibition, With 0.01% compound 1 in 5% EtOH/PBS [1, 4] | MBEC-Biofilm Inhibition, With 0.01% compound 2 in 5% EtOH/PBS [1, 5] | MBEC-Biofilm Inhibition, With 0.01% compound 7 in 5% EtOH/PBS [1] | MBEC-Biofilm Inhibition, With 0.05% compound 3 in 5% EtOH/PBS [1] | MBEC-Biofilm Inhibition, With 0.05% compound 6 in 5% EtOH/PBS [1] | MBEC-Biofilm Elimination, without salt of compound 2 [2] | MBEC-Biofilm Elimination, with 0.1% salt of compound 2 [2] | MBEC-Biofilm Elimination, without salt of compound 6 [2] | MBEC-Biofilm Elimination, with 0.1% salt of compound 6 [2] | MBEC-Biofilm Elimination, Without compound 1 [2] | also measured
1 | O=C(O)c1cn(C2CC2)c2cc(N3CCNCC3)c(F)cc2c1=O [CP, ciprofloxacin] | >0.5 | >0.5 | >0.5 | >0.5 | >0.5 | >0.5 | >0.5 | >0.5 | >0.5 | 0.5 | 0.5 | 0.5 | >0.5 | >0.5 | >0.5 | >0.5 | 0.5 | >0.5 | >0.5 | >0.5 | MBEC ([1]; antibiotic or combination alone, concentrations in order of the combination): >0.5 µg/mL; MBEC, μg/mL +Compound 1 ([1]; antibiotic plus Compound 1): 0.5 µg/mL; MBEC, μg/mL +Compound 2 ([1]; antibiotic plus Compound 2): >0.5 µg/mL; MBEC, μg/mL +Compound 7 ([1]; antibiotic plus Compound 7): 0.5 µg/mL; (% reduction) +Compound 1 [1, 3]: > 50%; (% reduction) +Compound 7 [1, 3]: > 50%; value in parentheses after MBEC-Biofilm Inhibition with 0.01% compound 1 (% reduction as in Table 2) [1, 4]: ≥ 50; value in parentheses after MBEC-Biofilm Inhibition with 0.01% compound 2 (% reduction as in Table 2) [1, 5]: ≥ 50; MBEC-Biofilm Elimination, Without compound 2 [2]: >0.5; MBEC-Biofilm Elimination, Without compound 3 [2]: >0.5; MBEC-Biofilm Elimination, Without compound 6 [2]: >0.5; MBEC-Biofilm Elimination, Without compound 7 [2]: >0.5; MBEC-Biofilm Elimination, Without compound 9 [2]: >0.5; MBEC-Biofilm Elimination, With 0.01% compound 1 in 5% EtOH/PBS [2]: >0.5; MBEC-Biofilm Elimination, With 0.01% compound 2 in 5% EtOH/PBS [2]: >0.5; MBEC-Biofilm Elimination, With 0.01% compound 7 in 5% EtOH/PBS [2]: >0.5; MBEC-Biofilm Elimination, With 0.05% compound 3 in 5% EtOH/PBS [2]: >0.5; MBEC-Biofilm Elimination, With 0.05% compound 6 in 5% EtOH/PBS [2]: >0.5
2 | C[C@@H](O)[C@H]1C(=O)N2C(C(=O)O)=C(S[C@@H]3CN[C@H](C(=O)N(C)C)C3)[C@H](C)[C@H]12 [MER, meropenem] | >2 | >2 | >2 | >2 | >2 | >2 | >2 | >2 | >2 | >2 | >2 | >2 | >2 | >2 | >2 | >1 | >1 | >1 | >1 | >1 | MBEC-Biofilm Inhibition, With 0.1% w/v compound 9 in PBS [1, 6]: >2; MBEC-Biofilm Elimination, Without compound 2 [2]: >1; MBEC-Biofilm Elimination, Without compound 3 [2]: >1; MBEC-Biofilm Elimination, Without compound 6 [2]: >1; MBEC-Biofilm Elimination, Without compound 7 [2]: >1; MBEC-Biofilm Elimination, Without compound 9 [2]: >1; MBEC-Biofilm Elimination, With 0.01% compound 1 in 5% EtOH/PBS [2]: >1; MBEC-Biofilm Elimination, With 0.01% compound 2 in 5% EtOH/PBS [2]: >1; MBEC-Biofilm Elimination, With 0.01% compound 7 in 5% EtOH/PBS [2]: >1; MBEC-Biofilm Elimination, With 0.05% compound 3 in 5% EtOH/PBS [2]: 1; MBEC-Biofilm Elimination, With 0.05% compound 6 in 5% EtOH/PBS [2]: >1; MBEC-Biofilm Elimination, With 0.1% w/v compound 9 in PBS [2, 6]: >1
